Experimental data taken from patent US5202349A, “Substituted phenylacetylenes, pharmaceutical compositions containing these compounds and processes for the preparation of these compounds and compositions” (Gruenenthal GmbH, priority 1990, dated 1993).
pIC50: −log10 of the molar value.

Key:
[1] = tested on: ex vivo iLTB4-formation (5-lipoxygenase activity) in whole blood of rats; experiment: Inhibition of ex vivo iLTB4-formation in rat whole blood after oral administration; parameters: species or system male rats (Wistar strain); conditions: Rattus norvegicus, 21.5 mg/kg oral, blood taken 1 hour later
Protocol: The bioavailability of the compounds of formula I after oral administration was characterized by means of an ex vivo biochemical assessment method described by Tateson et al. in Brit. Pharmacol., 94, 528 (1988).
Compounds of formula I were orally administered to male rats (Wistar strain). 1 hour later the rats were bled by heart puncture in letal CO2 -narcosis. The 5-lipoxygenase reaction was triggered by the addition of the calcium-ionophor A23187 to an end concentration of […] to aliquots of rat whole blood and subsequent incubation for 30 minutes at 37° C. in a water bath. At the end of the incubation the samples were centrifuged to collect the cell free plasma. The concentration of the immunoreactive LTB4 (iLTB4 ng/ml) in each plasma sample was determined by a LTB4 -radioimmunoassay (^3 H-LTB4 -RIA, Amersham) by means of a LTB4 -standard curve in diluted rat plasma. For calculation of the percent inhibition of ex vivo iLTB4 -formation in whole blood of rats treated with the compounds of formula I rats treated with appropiate vehicle solution were included in all experiments, aliquots of their blood were run in parallel and were processed in the same way as described. The mean iLTB4 -formation per ml plasma of these vehicle treated control rats served as 100 percent value of normal control 5-lipoxygenase activity. The percent inhibition of the ex vivo iLTB4 -formation after oral administration of compounds of formula I was calculated as follows: 100 minus 100 times the quotient of the mean iLTB4 concentration per ml plasma of the rats treated with compounds of formula I […] and the mean iLTB4 concentration per ml plasma of the control rats.

cyclooxygenase = target: T1, cyclooxygenase (Ovis aries, UniProt P05979); experiment: Inhibition of cyclooxygenase in sheep seminal vesicle microsomes ([14C]-arachidonic acid, TLC); type: biochemical; conditions: pH 7.0, read-out: IC50 for inhibition of cyclooxygenase (B)
T1 construct: suspension of sheep seminal vesicle microsomes; from tissue; host or cells: sheep seminal vesicle microsomes
T1 sequence (P05979 25-600): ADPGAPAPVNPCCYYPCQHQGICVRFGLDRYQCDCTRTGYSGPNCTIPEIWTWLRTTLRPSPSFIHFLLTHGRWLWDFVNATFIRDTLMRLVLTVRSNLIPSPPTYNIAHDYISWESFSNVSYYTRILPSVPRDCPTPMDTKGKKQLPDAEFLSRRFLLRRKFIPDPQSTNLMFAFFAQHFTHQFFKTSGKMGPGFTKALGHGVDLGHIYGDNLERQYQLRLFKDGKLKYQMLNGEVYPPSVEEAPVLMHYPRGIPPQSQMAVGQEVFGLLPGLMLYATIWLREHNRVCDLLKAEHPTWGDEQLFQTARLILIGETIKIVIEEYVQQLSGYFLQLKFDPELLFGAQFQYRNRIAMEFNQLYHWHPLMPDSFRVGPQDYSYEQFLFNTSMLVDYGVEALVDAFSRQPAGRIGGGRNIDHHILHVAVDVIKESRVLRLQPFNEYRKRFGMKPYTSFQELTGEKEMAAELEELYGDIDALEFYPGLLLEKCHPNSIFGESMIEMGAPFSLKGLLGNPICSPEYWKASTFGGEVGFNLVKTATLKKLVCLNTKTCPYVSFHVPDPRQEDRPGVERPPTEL
Protocol: The effect of the test compounds on the activity of cyclooxygenase was tested using a suspension of sheep seminal vesicle microsomes in 50 mM potassium phosphate buffer of pH 7.0 which was incubated with the solvent only (as control) or with the test compound and [^14 C]-arachidonic acid. The "IC50 -values (B)" (i.e. the concentration of the test compound which causes an 50%-inhibition of the cyclooxygenase) were determined by thin layer chromatography and by means of a TLC-Linear-Analyzer.

5-lipoxygenase = target: T2, 5-lipoxygenase (Rattus norvegicus, UniProt P12527); experiment: Inhibition of 5-lipoxygenase in rat basophilic leukemia cells ([14C]-arachidonic acid, TLC); type: cell-based; conditions: for pIC50: rat basophilic leukemia cells, standardized to nordihydroguaiaretic acid; for Quotient (IC50 cyclooxygenase (B) / 5-lipoxygenase (A)): selectivity
T2 construct: endogenous in cells; host or cells: rat basophilic leukemia cells
T2 sequence (P12527 1-673): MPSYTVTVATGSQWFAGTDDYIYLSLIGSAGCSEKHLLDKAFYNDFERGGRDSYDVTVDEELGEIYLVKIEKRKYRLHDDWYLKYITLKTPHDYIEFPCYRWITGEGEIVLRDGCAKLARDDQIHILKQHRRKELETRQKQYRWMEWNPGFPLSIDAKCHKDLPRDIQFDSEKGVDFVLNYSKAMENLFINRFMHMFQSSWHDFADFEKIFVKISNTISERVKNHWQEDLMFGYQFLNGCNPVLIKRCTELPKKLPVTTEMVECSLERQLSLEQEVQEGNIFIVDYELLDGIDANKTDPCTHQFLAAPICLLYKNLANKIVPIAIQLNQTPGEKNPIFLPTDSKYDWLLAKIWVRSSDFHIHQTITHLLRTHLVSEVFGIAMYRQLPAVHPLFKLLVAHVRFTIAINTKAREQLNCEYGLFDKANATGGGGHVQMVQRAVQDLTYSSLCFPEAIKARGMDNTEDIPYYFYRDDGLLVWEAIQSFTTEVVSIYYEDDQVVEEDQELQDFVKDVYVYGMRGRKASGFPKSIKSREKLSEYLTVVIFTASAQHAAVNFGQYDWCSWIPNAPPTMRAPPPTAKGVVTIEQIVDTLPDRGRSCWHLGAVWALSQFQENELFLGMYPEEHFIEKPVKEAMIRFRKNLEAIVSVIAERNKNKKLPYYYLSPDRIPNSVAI
Protocol: To 1 ml each of this suspension there was added indomethacin (10 μM) and calcium chlorid (2 mM) and then the mixture was incubated in presence or absence of a test compound for 3 minutes and thereafter with 20 μM of [^14 C]-arachidonic acid and 20 μM of the calcium ionophore A 23 187 for 10 minutes. The reaction was stopped by adding 20 μl of glacial acetic acid and then the mixture was extracted with ethyl acetate to isolate the metabolites of arachidonic acid formed by the enzymatic action of 5-lipoxygenase. These were separated by thin layer chromatography using a solvent mixture known to be suitable for leukotriene analysis [c.f. Jakschik et al., Biochem. Biophys. Res. Commun. 102, 624 (1981)]. The distribution of the radioactivity to the different metabolites was measured using a TLC Linear Analyzer. By bringing into relationship the percentages of the amount of the products formed under the action of 5-lipoxygenase (5-HETE, isomers of LTB4) in the controls (tests performed in absence of test compounds) and in the presence of test compounds of formula I in different concentrations the "IC50 -value" (i.e. the concentration of the test compound which causes an 50%-inhibition of the 5-lipoxygenase) is determined. For standardization these values then were brought into relationship to the IC50 -values determined in the same manner for the standard compound nordihydroguaiaretic acid.

[2] = tested on: endotoxin/galactosamine-induced hepatitis, increase of liver specific enzymes in the serum; experiment: Endotoxin/galactosamine-induced hepatitis in mice (septic shock model); type: in vivo; conditions: 10 mg/kg i.p. for each of five applications, 8 hours after endotoxin
Protocol: As a test model to evaluate the effects of test compounds in septic shock the endotoxin/galactosamine-induced hepatitis in mice has been used. […] The intraperitoneal application of 5-lipoxygenase inhibitors 30 minutes before, simultaneously with and 2, 4 and 6 hours after the application of endotoxin inhibitis the hepatitis-induced increase of the serum activities of these enzymes. On administration of compounds of the formula I in doses of 10 mg/kg for each of the five applications the following percentual inhibitions of the increase of the enzymes GPT and SDH were achieved (the increase of enzymatic activities in control animals was set at 100%): […]

Row | pIC50 (cyclooxygenase) | pIC50 (5-lipoxygenase) | Quotient (IC50 cyclooxygenase (B) / 5-lipoxygenase (A)) (5-lipoxygenase) | Structure (SMILES) | inhibition in vivo at 21.5 mg/kg [1] [%] | Inhibition of increase of GPT [2] [%] | Inhibition of increase of SDH [2] [%]
1 | 3.30 | 6.54 | 1724 | CC(c1ccc(C#Cc2ccsc2)cc1)N(O)C(N)=O (stereo not drawn) [Example 16b, N-Hydroxy-N-{1-[4-(thien-3-yl-ethynyl)-phenyl]-ethyl}-urea] | 91 | – | –
2 | < 3.30 | 6.17 | > 746 | CC(c1cccc(C#Cc2ccc(C(F)(F)F)cc2)c1)N(O)C(N)=O (stereo not drawn) [Example 11, N-Hydroxy-N-{1-[3-(4-trifluoromethyl-phenylethynyl)-phenyl]-ethyl}-urea] | 76 | – | –
3 | 3.30 | 6.26 | 909 | CC(c1cccc(C#Cc2ccc(Cl)cc2)c1)N(O)C(N)=O (stereo not drawn) [Example 10d, N-Hydroxy-N-{1-[3-(4-chloro-phenylethynyl)-phenyl]-ethyl}-urea] | 99 | – | –
4 | – | – | – | CC(C)c1ccc(C#Cc2cccc(CN(O)C(N)=O)c2)cc1 [Example 10e] | 81 | – | –
5 | 3.30 | 6.39 | 1220 | NC(=O)N(O)Cc1ccc(C#Cc2ccsc2)cc1 [Example 16f, N-Hydroxy-N-[4-(thien-3-yl-ethynyl)-benzyl]-urea] | 97 | – | –
6 | – | – | – | CC(=O)N(O)Cc1cccc(C#Cc2ccc(C(C)C)cc2)c1 [Example 5e, N-[3-(4-Isopropyl-phenylethynyl)-benzyl]-acetohydroxamic acid] | 82 | – | –
7 | < 3.30 | 6.24 | > 862 | COc1cccc(C#Cc2cccc(C(C)N(O)C(C)=O)c2)c1 (stereo not drawn) [Example 5c, N-{1-[3-(3-Methoxy-phenylethynyl)-phenyl]-ethyl}-acetohydroxamic acid] | 88 | – | –
8 | < 3.30 | 6.74 | > 2778 | COc1ccc(C#Cc2cccc(CN(O)C(N)=O)c2)cc1 [Example 10n, N-Hydroxy-N-[3-(4-methoxyphenylethynyl)-benzyl]-urea] | – | – | –
9 | 3.30 | 6.43 | 1351 | NC(=O)N(O)Cc1ccc(C#Cc2cccs2)cc1 [Example 16d, N-Hydroxy-N-[4-(thien-2-yl-ethynyl)-benzyl]-urea] | – | – | –
10 | 3.57 | 6.49 | 844 | COc1ccccc1C#Cc1cccc(C(C)N(O)C(N)=O)c1 (stereo not drawn) [Example 10g, N-Hydroxy-N-{1-[3-(2-methoxy-phenylethynyl)-phenyl]-ethyl}-urea] | – | – | –
11 | – | – | – | CC(c1cccc(C#Cc2ccc(F)cc2)c1)N(O)C(N)=O (stereo not drawn) [Example 8b, N-Hydroxy-N-{1-[3-(4-fluorophenylethynyl)-phenyl]-ethyl}-urea] | 99 | – | –
12 | – | – | – | CC(=O)N(O)C(C)c1ccc(C#Cc2ccccc2)cc1 (stereo not drawn) [Example 2a, N-{1-[4-(Phenylethynyl)-phenyl]-ethyl}-acetohydroxamic acid] | 76 | – | –
13 | < 3.30 | 6.16 | > 725 | COc1ccc(C#Cc2cccc(C(C)N(O)C(N)=O)c2)cc1OC (stereo not drawn) [Example 10b, N-Hydroxy-N-{1-[3-(3,4-dimethoxy-phenylethynyl)-phenyl]-ethyl}-urea] | 86 | – | –
14 | < 3.30 | 6.19 | > 769 | NC(=O)N(O)Cc1cccc(C#Cc2cccc3ccccc23)c1 [Example 7, N-Hydroxy-N-[-3-(naphth-1-yl-ethynyl)-benzyl]-urea] | 90 | – | –
15 | < 3.30 | 6.55 | > 1786 | COc1ccc(C#Cc2cccc(C(C)N(O)C(C)=O)c2)cc1OC (stereo not drawn) [Example 5b, N-{1-[3-(3,4-Dimethoxy-phenylethynyl)-phenyl]-ethyl}-acetohydroxamic acid] | – | – | –
16 | 3.30 | 6.39 | 1220 | CC(c1ccc(C#Cc2cccs2)cc1)N(O)C(N)=O (stereo not drawn) [Example 15, N-Hydroxy-N-{1-[4-(thien-2-yl-ethynyl)-phenyl]-ethyl}-urea] | 77 | – | –
17 | < 3.30 | 6.57 | > 1852 | COc1cccc(C#Cc2cccc(C(C)N(O)C(N)=O)c2)c1 (stereo not drawn) [Example 10c, N-Hydroxy-N-{1-[3-(3-methoxy-phenylethynyl)-phenyl]-ethyl}-urea] | – | – | –
18 | < 3.30 | 6.59 | > 1923 | NC(=O)N(O)Cc1cccc(C#Cc2ccc(Cl)cc2)c1 [Example 10m, N-Hydroxy-N-[3-(4-chlorophenylethynyl)-benzyl]-urea] | – | – | –
19 | – | – | – | CC(=O)N(O)C(C)c1cccc(C#Cc2ccc(Cl)cc2)c1 (stereo not drawn) [Example 12, N-{1-[3-(4-Chloro-phenylethynyl)-phenyl]-ethyl}-acetohydroxamic acid] | 87 | – | –
20 | – | – | – | COc1ccc(C#Cc2cccc(CN(O)C(C)=O)c2)cc1 [Example 4, N-[3-(4-Methoxy-phenylethynyl)-benzyl]-acetohydroxamic acid] | – | 87 | 81
